Source: patent publication US20250275993A1, “GLYCOSYLATION INHIBITORS AS THERAPEUTICS FOR STROKE” (The Regents of the University of California, priority 2022, published 2025)

Tests used:
[1] = system: bovine choroidal microvascular endothelial cells (BCEC); assay: BCEC proliferation assay (AlamarBlue / crystal violet); type: cell-based
Description: The effect of ManN on EC proliferation was assessed.
AlamarBlue detects mitochondria activity as an indication of cell viability which correlates with cell number at certain ranges.
Proliferation assays with BCECs and BRECs were performed. Log-phase growing BCECs or BRECs (passage <10) were trypsinized, re-suspended and seeded in 96-well plates (no coating) in low-glucose DMEM supplemented with 10% bovine calf serum, 2 mM glutamine, and antibiotics (growth medium), at a density of 1200-1500 cells per well in 200 μl volume. All reagents were added at the indicated final concentrations. After 3-6 days, cells were incubated with AlamarBlue for 4 hrs. Fluorescence was measured at 530 nm excitation wavelength and 590 nm emission wavelength. The experiments were repeated at least three times. […] 20% methanol or 0.05% DMSO served as negative controls. […] Human RMVECs and human adult DMVECs were split into Gelatin-coated 96 wells (2000 cells per well) in low glucose DMEM containing 10% FBS. 1200 cells/well was set up for proliferation assay in low glucose media containing 0.5% FBS. Data was collected at day 4 or 5. HUVEC (p7-10) were grown on gelatin-coated plate until it reached 70-80% confluency.
On the day of the assay, cells were dissociated with 0.05% trypsin, which was neutralized with 0.5% FBS-containing EBM. Cells were briefly spun and then re-suspended in 0.5% FBS-media. Cells were counted and plated in 96-well, 1000 cells/well. Triplicate wells were used for each treatment. Data were collected at day 3, and then cells were fixed in 4% paraformaldehyde for 15 min before adding crystal violet. Cell-covered areas were quantified after taking pictures by Image J software.

JNK/c-jun = assay: Western blot of JNK pathway activation in BCECs; type: cell-based, bovine
Description: Cells were allowed to reach-80% confluency in 12-well plates. […] At various time points, plates were taken out of the incubator and kept on ice. Cell monolayers were first washed once with ice-cold PBS before lysis with 250 μI of Pierce RIPA buffer (ThermoFisher Scientific, Rockford, IL) or use 50 mM Tris-HCl (pH 7.6), 150 mM NaCl, 10% Glycerol, 1% NP-40 containing protease/Phosphatase inhibitor cocktail (100×) (Cell signaling, #5872). Lysates were collected and mixed with 4× Bolt LDS Sample Buffer (Novex, Carlsbad, CA) in the presence of Halt protease inhibitors and phosphatase inhibitor cocktail (ThermoFisher scientific, #NP0007). The samples were subjected to SDS-PAGE (Bolt 4-12% Bis-Tris Plus, Invitrogen) using Bolt MES SDS running buffer or NuPAGE 3-8% Tris-Acetate gel using Tris-Acetate SDS running buffer (Novex). HUVECs (passage 6-8) were plated in EBM-2 basal medium (Lonza) with 0.2% FBS. Following overnight culture, cells were serum-starved in EBM-2 medium for 4 hrs prior to treatment with 50 ng/ml of VEGF165 or vehicle controls for various lengths. Equal amounts of protein lysates were analyzed by SDS-PAGE and blotted with the indicated antibodies. Proteins were transferred using Tris-Glycine buffer with 20% Methanol (Proteonomics grade) (Apex BioResearch Products). Membranes were first incubated with 5% milk in TBST, pH 7.6 (TEKnova, Hollister, CA), followed by blotting with primary and secondary antibodies. ECL anti-rabbit IgG, horseradish peroxidase linked whole antibody from donkey or sheep anti-mouse were obtained from GE Healthcare (UK limited). SuperSignal West Dura Extended Duration substrate was from ThermoFisher Scientific. In some cases, the same PVDF membranes were stripped by 8-min incubation in the Restore Plus Western Blot Stripping Buffer (ThermoFisher Scientific) to show total specific protein expression, followed by second stripping for (3-actin expression.

retinal vasculature = assay: Retinal neovascularization after intravitreal injection; type: in vivo, mouse; conditions: 500 ng ManN or Kif, 200 ng bFGF intravitreally; after seven days
Description: The effect of ManN and Kif on inducing retinal neovascularization was assessed. The findings in cultured eye-derived EC were extended to a suitable in vivo model system. The mouse retina has been used extensively over the past decades to study both physiological and pathological angiogenesis. To obtain a detailed description of the retinal vasculature, images from retinal flat mounts were processed for vascular area fraction (ratio of area covered by blood vessels to total retinal area). Using this model, the effects of ManN in retinal neovascularization were assessed. Kif was also tested in this model because it is a water-soluble inhibitor and its mechanism of glycosylation inhibition is well established. In addition, it shares with ManN the ability to activate ERK, AKT and stress pathways in BCEC (FIG. 7E).
Assessment of retinal angiogenesis following intravitreal administration was done. Briefly, 6-8 weeks old C57BL/6 male mice were randomly allocated to different groups and anesthetized with ketamine/Xylazine cocktail. The indicated amounts of ManN, Kif or bFGF (R&D systems, AF-233-NA) in 1 μl of PBS and PBS vehicle control were injected intravitreally with a 33-gauge Hamilton syringe. Seven days after injection, animals were euthanized. Eyes were then enucleated and fixed in 4% paraformaldehyde (PFA) for 30 mins. Retinas were separated and stained with anti-CD31 immunofluorescence (IF) to evidence the vasculature. Evaluations were performed by an investigator blinded to the treatment. For CD31 IF, rat anti-mouse antibody (BD Biosciences, CAT #550274) was diluted 1:100 and incubated overnight at 4° C. After 4-hour incubation with the Alexa Fluor-488-conjugated anti-rat antibody (Life Technologies, A11006), whole mounts were imaged via the 488 nm channel using AIR Confocal STORM super-resolution system (Nikon). Quantification of vascular density in choroids and retina was carried out by Image J. Each experiment was repeated three times with similar results, and each treatment group consists of 5 individual samples.

| SMILES | additivity with VEGF in promoting BCEC proliferation ([1]; 5 ng/ml VEGF) | additivity with bFGF in promoting BCEC proliferation ([1]; 20 ng/ml bFGF, FIG. 11A) | shape of dose-response on BCEC proliferation ([1]; 0.5 μM to 1 mM, 5-6 days, with or without VEGF) | dose range with significant stimulatory effects on BCEC proliferation ([1]; BCEC) | maximal fold increase in EC-covered surface ([1]; ManN at 50 μM alone, crystal violet, FIG. 1A) [fold] | cytotoxicity in glucose-free media ([1]; as little as 4 μM ManN, even in the presence of VEGF) | additivity between ManN and VEGF in glucose-free media ([1]; glucose-free media) | activation of JNK and downstream c-Jun (JNK/c-jun; BCECs switched to media without growth factors, 4 μM-4 mM, four hours) | increase in density of retinal vessels vs PBS group (retinal vasculature) [%] | BCEC proliferation by glycosylation inhibitors ([1]; 0.01 to 100 μM, 3 days, absence or presence of 5 ng/ml VEGF) | activation of the JNK pathway by glycosylation inhibitors (JNK/c-jun; 40 μM, BCECs, FIG. 7E) |
| --- | --- | --- | --- | --- | --- | --- | --- | --- | --- | --- | --- |
| N[C@H](C=O)[C@@H](O)[C@H](O)[C@H](O)CO [ManN, 2-Amino-2-deoxy-D-mannose] | additive with VEGF in promoting BCEC proliferation | Additive effects | bell-shaped dose-response curve, with inhibition at higher concentrations | 5-500 UM | ~6.5 | significant cytotoxicity | abolished | significantly activated by ManN in a dose-dependent manner | ~30 |  |  |
| O=C1N[C@@H]2[C@@H](O)[C@@H](O)[C@H](O)[C@@H](CO)N2C1=O [Kif, Kifunensine, reference compound] |  |  |  |  |  |  |  |  | ~20 | stimulated in a dose-dependent fashion | able to activate the JNK pathway |
